# Source: US20240374529A1, “PHARMACEUTICAL COMPOSITION COMPRISING POLYSACCHARIDE” (HUNG, MIEN-CHIE, priority 2021, published 2024)
# Tests used:
# Assay type in all cases: cell-based
# MDA-MB-231 = experiment: Cytotoxicity, triple negative breast cancer cell line MDA-MB-231; details: Homo sapiens
# BxPC3 = experiment: Cytotoxicity, pancreatic cancer cell line BxPC3; details: Homo sapiens, BXPC-3
# CFPAC-1 = experiment: Cytotoxicity, pancreatic cancer cell line CFPAC-1; details: Homo sapiens
# SKOV3 = experiment: Cytotoxicity, ovarian cancer cell line SKOV3; details: Homo sapiens, SK-OV-3
# 4T1 = experiment: Cytotoxicity, triple negative breast cancer cell line 4T1; details: Mus musculus
smiles,measurement,setting,value
"CC(=O)O[C@@]12CO[C@@H]1C[C@H](O)[C@@]1(C)C(=O)[C@H](O)C3=C(C)[C@@H](OC(=O)[C@H](O)[C@@H](NC(=O)OC(C)(C)C)c4ccccc4)C[C@@](O)([C@@H](OC(=O)c4ccccc4)[C@H]21)C3(C)C [DTX, docetaxel]",IC50,MDA-MB-231,18.7 nM
same,IC50,BxPC3,22.9 nM
same,IC50,CFPAC-1,38.8 nM
same,IC50,SKOV3,10.1 nM
same,IC50,4T1,29.1 nM
